Results taken from ChEMBL document CHEMBL5653615 (J Biol Chem, 2013).

Experiments:
[1] = biological target: Calcium/calmodulin-dependent protein kinase type 1 (Homo sapiens) (UniProt Q14012); experiment: Inhibition of human CAMK1a at 500 nM by HotSpot assay relative to control
[2] = biological target: MAP kinase-interacting serine/threonine-protein kinase 1 (Homo sapiens) (UniProt Q9BUB5); experiment: Inhibition of human MNK1 at 500 nM by HotSpot assay relative to control
[3] = biological target: Serine/threonine-protein kinase PLK3 (Homo sapiens) (UniProt Q9H4B4); experiment: Inhibition of human PLK3 at 500 nM by HotSpot assay relative to control
Chain of Serine/threonine-protein kinase PLK3 (Homo sapiens) (Q9H4B4 whole entry, looked up): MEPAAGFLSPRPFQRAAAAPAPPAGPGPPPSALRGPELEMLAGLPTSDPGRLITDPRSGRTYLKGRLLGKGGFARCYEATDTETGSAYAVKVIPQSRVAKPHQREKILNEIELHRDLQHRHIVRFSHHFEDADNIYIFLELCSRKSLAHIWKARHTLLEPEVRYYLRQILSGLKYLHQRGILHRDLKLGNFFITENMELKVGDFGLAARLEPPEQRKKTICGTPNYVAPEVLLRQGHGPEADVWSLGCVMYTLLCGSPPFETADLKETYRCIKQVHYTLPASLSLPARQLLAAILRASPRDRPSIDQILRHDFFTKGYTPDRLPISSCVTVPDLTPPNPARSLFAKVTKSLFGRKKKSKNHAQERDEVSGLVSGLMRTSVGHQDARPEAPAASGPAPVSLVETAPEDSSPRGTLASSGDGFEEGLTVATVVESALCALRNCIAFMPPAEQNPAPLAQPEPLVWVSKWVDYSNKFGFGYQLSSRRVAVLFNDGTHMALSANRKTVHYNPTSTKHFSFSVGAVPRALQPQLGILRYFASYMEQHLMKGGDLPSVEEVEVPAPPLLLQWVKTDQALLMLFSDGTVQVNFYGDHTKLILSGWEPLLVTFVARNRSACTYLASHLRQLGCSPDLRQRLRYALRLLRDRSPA

[4] = biological target: Mitogen-activated protein kinase kinase kinase 20 (Homo sapiens) (UniProt Q9NYL2); experiment: Inhibition of human MLTK at 500 nM by HotSpot assay relative to control
Chain of Mitogen-activated protein kinase kinase kinase 20 (Homo sapiens) (Q9NYL2 2-800 limits assumed): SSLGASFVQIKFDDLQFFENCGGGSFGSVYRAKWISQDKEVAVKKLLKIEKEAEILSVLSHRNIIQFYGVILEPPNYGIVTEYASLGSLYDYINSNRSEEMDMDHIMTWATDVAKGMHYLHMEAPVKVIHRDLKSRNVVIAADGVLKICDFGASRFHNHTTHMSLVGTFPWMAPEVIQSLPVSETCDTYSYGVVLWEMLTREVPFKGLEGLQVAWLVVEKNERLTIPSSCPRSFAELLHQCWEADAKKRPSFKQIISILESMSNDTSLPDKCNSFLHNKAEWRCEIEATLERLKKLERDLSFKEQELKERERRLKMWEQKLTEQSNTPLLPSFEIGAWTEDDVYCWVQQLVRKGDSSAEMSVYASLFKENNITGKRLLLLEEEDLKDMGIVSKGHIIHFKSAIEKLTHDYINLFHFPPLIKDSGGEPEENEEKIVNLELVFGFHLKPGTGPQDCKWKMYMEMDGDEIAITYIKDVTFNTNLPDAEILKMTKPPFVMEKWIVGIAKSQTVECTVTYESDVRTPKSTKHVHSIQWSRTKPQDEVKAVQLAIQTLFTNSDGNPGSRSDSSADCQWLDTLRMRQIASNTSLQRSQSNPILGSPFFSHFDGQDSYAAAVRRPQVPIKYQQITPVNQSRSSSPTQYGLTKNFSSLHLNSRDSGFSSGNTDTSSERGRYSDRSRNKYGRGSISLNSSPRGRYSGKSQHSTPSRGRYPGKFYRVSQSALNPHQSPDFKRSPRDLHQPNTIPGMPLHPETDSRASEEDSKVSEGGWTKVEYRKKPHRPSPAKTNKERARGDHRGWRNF

[5] = biological target: T1, cGMP-dependent protein kinase 1 (Homo sapiens) (UniProt Q13976); experiment: Inhibition of human PKG1b at 500 nM by HotSpot assay relative to control
T1 sequence (whole entry): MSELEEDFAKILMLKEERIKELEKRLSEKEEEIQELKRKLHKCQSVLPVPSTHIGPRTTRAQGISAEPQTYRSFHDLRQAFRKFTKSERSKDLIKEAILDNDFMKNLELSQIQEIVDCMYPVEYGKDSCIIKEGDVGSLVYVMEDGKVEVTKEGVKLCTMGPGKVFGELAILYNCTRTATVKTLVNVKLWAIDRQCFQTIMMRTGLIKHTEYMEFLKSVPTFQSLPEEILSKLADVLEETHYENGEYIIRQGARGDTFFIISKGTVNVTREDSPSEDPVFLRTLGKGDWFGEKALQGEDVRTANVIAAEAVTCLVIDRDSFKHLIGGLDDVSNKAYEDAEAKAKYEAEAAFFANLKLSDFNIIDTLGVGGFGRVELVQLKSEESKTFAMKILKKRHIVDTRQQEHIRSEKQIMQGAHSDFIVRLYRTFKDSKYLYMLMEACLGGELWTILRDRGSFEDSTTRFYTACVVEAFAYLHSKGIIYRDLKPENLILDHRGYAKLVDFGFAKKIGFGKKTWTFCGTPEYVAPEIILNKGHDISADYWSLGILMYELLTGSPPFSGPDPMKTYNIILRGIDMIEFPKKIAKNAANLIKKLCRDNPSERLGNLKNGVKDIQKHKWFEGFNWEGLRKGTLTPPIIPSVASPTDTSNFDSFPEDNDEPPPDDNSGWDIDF

[6] = biological target: T2, Dual specificity tyrosine-phosphorylation-regulated kinase 3 (Homo sapiens) (UniProt O43781); experiment: Inhibition of human DYRK3 at 500 nM by HotSpot assay relative to control
T2 sequence (whole entry): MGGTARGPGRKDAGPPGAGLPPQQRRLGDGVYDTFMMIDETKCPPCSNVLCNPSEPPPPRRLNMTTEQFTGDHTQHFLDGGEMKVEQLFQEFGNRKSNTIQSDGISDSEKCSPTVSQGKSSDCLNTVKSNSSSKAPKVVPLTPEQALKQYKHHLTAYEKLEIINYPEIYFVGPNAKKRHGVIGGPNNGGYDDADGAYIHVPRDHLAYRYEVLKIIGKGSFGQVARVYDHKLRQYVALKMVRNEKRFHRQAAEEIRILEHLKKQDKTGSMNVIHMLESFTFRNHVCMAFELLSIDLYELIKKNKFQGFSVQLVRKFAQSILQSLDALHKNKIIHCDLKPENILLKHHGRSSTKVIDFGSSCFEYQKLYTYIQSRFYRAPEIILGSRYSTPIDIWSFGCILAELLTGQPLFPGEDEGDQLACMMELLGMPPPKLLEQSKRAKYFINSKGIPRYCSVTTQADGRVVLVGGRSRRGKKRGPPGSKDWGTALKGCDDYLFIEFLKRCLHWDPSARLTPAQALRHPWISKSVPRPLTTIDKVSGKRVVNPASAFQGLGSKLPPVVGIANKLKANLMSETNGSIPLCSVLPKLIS

[7] = biological target: Tyrosine-protein kinase receptor UFO (Homo sapiens) (UniProt P30530); experiment: Inhibition of human AXL at 500 nM by HotSpot assay relative to control
Chain of Tyrosine-protein kinase receptor UFO (Homo sapiens) (P30530 whole entry): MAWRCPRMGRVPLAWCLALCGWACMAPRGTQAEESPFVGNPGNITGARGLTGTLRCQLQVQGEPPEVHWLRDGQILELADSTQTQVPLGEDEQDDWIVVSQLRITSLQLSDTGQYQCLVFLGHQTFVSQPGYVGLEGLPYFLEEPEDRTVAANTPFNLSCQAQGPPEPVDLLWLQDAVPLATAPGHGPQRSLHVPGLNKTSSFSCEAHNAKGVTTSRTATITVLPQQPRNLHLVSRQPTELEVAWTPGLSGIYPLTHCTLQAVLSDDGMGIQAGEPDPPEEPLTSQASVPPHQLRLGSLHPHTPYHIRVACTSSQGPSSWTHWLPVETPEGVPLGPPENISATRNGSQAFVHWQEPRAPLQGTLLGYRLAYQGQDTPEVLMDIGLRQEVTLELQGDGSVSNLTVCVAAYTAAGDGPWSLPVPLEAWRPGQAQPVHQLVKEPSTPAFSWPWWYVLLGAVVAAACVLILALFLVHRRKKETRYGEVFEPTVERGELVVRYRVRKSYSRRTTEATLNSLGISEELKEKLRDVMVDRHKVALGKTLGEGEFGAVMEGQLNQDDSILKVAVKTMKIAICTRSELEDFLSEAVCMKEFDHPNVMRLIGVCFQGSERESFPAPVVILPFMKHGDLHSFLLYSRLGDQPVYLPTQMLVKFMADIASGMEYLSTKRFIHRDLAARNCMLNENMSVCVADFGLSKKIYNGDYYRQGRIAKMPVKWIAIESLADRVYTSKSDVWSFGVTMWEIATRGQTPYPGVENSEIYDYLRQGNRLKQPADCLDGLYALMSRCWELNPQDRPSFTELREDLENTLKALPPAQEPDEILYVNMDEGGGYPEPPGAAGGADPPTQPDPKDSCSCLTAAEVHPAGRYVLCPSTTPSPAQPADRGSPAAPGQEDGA

[8] = biological target: Tyrosine-protein kinase ABL1 (Homo sapiens) (UniProt P00519); experiment: Inhibition of human ABL1 at 500 nM by HotSpot assay relative to control
Chain of Tyrosine-protein kinase ABL1 (Homo sapiens) (P00519 whole entry): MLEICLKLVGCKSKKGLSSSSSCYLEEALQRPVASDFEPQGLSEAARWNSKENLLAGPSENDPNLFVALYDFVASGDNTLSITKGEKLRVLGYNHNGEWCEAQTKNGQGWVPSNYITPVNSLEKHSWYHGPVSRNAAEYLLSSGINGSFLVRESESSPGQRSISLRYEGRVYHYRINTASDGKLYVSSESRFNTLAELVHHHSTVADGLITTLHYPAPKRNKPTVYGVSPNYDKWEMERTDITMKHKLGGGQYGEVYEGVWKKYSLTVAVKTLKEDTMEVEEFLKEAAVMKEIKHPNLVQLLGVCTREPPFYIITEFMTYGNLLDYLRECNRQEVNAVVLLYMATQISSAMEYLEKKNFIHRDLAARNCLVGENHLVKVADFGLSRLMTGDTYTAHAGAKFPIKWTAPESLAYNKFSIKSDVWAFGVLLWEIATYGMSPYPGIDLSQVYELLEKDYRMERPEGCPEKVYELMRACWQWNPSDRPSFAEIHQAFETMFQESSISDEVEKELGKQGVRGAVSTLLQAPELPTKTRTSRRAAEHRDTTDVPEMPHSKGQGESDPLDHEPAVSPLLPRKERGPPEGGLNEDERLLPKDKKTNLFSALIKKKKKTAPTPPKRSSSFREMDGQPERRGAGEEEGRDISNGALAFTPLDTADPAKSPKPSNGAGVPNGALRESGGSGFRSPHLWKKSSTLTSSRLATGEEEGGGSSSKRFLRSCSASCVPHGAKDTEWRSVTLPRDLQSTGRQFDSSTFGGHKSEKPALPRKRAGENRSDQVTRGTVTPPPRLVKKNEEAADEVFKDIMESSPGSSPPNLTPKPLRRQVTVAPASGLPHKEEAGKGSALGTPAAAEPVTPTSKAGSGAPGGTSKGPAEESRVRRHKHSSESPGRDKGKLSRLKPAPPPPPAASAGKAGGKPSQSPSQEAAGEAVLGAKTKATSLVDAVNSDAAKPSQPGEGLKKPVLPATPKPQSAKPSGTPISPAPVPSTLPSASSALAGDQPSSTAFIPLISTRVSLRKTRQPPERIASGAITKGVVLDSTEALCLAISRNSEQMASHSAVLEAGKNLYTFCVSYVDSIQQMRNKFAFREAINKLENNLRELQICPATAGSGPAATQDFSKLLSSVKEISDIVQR

[9] = biological target: T3, Cytoplasmic tyrosine-protein kinase BMX (Homo sapiens) (UniProt P51813); experiment: Inhibition of human BMX at 500 nM by HotSpot assay relative to control
T3 sequence (whole entry): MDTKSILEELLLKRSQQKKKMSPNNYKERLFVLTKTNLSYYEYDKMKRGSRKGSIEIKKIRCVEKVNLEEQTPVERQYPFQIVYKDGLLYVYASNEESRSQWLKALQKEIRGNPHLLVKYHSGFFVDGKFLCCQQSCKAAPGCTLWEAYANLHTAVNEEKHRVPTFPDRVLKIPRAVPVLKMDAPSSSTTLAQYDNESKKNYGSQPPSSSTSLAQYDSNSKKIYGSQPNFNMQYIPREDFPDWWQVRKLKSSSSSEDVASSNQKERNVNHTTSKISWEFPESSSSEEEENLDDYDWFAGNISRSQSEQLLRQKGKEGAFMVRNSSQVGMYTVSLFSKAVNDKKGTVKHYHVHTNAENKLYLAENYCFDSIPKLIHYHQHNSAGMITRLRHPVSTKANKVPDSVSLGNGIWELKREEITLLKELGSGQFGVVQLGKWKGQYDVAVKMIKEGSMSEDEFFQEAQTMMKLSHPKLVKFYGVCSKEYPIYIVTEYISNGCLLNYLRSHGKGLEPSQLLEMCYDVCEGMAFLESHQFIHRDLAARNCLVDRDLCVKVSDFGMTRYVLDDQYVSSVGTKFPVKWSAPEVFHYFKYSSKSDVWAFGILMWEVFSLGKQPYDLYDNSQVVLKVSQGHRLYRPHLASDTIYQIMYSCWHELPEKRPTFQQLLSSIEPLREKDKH

[10] = biological target: cAMP-dependent protein kinase (PKA) (Homo sapiens) (UniProt P22694+P17612+P22612); experiment: Inhibition of human PKA at 500 nM by HotSpot assay relative to control; assay type: protein assay
[11] = biological target: CDK6/cyclin D1 (Homo sapiens) (UniProt P24385+Q00534); experiment: Inhibition of human CDK6/cyclin D1 at 500 nM by HotSpot assay relative to control; assay type: protein-complex assay
[12] = biological target: Tyrosine-protein kinase Fyn (Homo sapiens) (UniProt P06241); experiment: Inhibition of human FYN at 500 nM by HotSpot assay relative to control
Chain of Tyrosine-protein kinase Fyn (Homo sapiens) (P06241 2-537 limits assumed): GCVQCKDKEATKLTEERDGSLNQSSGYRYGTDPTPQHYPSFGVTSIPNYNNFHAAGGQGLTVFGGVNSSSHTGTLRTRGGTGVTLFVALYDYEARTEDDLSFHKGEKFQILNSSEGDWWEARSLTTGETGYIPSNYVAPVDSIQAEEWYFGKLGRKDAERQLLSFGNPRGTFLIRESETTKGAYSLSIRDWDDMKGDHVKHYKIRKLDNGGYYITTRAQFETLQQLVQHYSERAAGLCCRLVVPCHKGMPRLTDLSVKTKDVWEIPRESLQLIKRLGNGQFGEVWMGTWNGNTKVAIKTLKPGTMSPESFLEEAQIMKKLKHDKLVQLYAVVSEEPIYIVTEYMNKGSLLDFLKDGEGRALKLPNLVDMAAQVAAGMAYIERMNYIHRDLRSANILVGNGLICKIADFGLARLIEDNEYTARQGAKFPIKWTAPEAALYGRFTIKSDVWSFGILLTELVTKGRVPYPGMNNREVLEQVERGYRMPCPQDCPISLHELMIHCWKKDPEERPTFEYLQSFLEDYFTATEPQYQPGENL

[13] = biological target: Mitogen-activated protein kinase kinase kinase 10 (Homo sapiens) (UniProt Q02779); experiment: Inhibition of human MAP3K10 at 500 nM by HotSpot assay relative to control

Chain of Calcium/calmodulin-dependent protein kinase type 1 (Homo sapiens) (Q14012 whole entry, looked up): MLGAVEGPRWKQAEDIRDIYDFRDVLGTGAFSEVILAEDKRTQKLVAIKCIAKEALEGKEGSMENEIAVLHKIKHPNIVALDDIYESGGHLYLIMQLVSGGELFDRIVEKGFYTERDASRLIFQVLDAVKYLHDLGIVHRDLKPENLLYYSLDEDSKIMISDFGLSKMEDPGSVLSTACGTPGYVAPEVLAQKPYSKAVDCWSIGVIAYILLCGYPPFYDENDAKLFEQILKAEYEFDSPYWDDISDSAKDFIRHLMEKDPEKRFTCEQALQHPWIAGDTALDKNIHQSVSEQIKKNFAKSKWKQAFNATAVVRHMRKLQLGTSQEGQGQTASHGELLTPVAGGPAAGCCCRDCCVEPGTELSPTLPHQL
Chain of MAP kinase-interacting serine/threonine-protein kinase 1 (Homo sapiens) (Q9BUB5 whole entry, looked up): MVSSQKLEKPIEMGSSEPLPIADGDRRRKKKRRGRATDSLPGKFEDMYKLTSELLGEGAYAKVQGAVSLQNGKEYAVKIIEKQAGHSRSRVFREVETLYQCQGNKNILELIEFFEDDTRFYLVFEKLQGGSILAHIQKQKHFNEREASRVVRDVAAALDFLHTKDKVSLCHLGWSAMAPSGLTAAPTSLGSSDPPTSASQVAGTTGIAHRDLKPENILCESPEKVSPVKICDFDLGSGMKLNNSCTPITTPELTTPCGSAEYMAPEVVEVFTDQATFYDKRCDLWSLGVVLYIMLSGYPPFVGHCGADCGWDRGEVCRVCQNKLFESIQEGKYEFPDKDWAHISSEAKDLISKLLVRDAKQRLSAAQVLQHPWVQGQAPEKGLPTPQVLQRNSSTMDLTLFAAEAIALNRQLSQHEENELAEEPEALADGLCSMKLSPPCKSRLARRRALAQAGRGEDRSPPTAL

SMILES	inhibition [1] [%]	inhibition [2] [%]	inhibition [3] [%]	inhibition [4] [%]	inhibition [5] [%]	inhibition [6] [%]	inhibition [7] [%]	inhibition [8] [%]	inhibition [9] [%]	inhibition [10] [%]	inhibition [11] [%]	inhibition [12] [%]	inhibition [13] [%]
Nc1n[nH]c2nnc(-c3c(-c4ccccc4)nn4ccccc34)cc12	-2.35	1.48	-0.08	-1.29	10.5	0.17	0.88	16.7	15.6	2.35	-0.33	4.98	9.29
Oc1n[nH]c2nnc(-c3c(-c4ccccc4)nn4ccccc34)cc12	0.02	0.89	1.17	-0.11	10.6	1.62	-1.44	0.36	6.43	-5.26	-3.16	-0.67	5.25
